Values of other authors, collected in patent publication US20120245201A1, “Isopropylphenidate for Treatment of Attention-Deficit/Hyperactivity Disorder and Fatigue-Related Disorders and Conditions” (priority 2009, published 2012).

Experiments:
mouse model = conditions: 5 mg/kg i.p.; cited from earlier work
[1] = metabolite after MPH; cited from earlier work

| SMILES | motor activity (mouse model) | blood concentrations relative to the parent compound [1] |
| --- | --- | --- |
| CCOC(=O)C(c1ccccc1)C1CCCCN1 (stereo not drawn) [d-EPH] | significant motor activity |  |
| O=C(O)C(c1ccccc1)C1CCCCN1 (centres unmarked) [RA, ritalinic acid] |  | 30-60 times |
